Data: US12528803B2, “Inhibitors of αvβ6 integrin” (Morphic Therapeutic, Inc., priority 2018, dated 2026)

Legend:
[1] = MDCK in vitro permeability assay (wild type MDCK cells, no inhibitor); assay type: in vitro ADME, Canine; conditions: dog, no Pgp inhibitor, apical to basolateral (A→B)
Experimental: (§1) Compounds were tested for permeability in an MDCK permeability assay. This assay measures the ability of compounds to cross a layer of Madin-Darby Canine Kidney (MDCK) cells from the apical to basolateral side (A→B). This measurement is predictive of the ability of compounds to be absorbed in the gut following oral dosing, an essential characteristic of an orally administered small molecule integrin inhibitor drug.
(§2) The assay is run in two formats. One uses wild type MDCK cells with no inhibitor. This method works well in determining the passive permeability of compounds with low efflux by P-glyocprotein (Pgp), and was used to assess permeability of a Reference Compound having the chemical formula shown below.
(§3) Cell Culture and Maintenance: • Cell stock cultures (MDCK or MDCK MDR1) are maintained in MEM+10% FBS+1% NEAA, grown in 75 cm^2 tissue culture treated flasks and split (passed) 2 times weekly to maintain desired confluence. • For maintenance passage: trypsinized cells are routinely distributed into new flasks at a standard passage ratio of 1:20.
(§4) Seeding assay plates: MDCK assay plates are seeded with MDCK or MDCK MCR1 cells 3-4 days prior to running the assay. 24-well plates are seeded at a cell density of 0.88×10^5/well in a 400 μL apical chamber volume (2.2×10^5/mL) with a […] volume of growth medium to the 24-well basal chamber. […]

[2] = system: Madin-Darby Canine Kidney (MDCK) cells; assay: as above; assay type: in vitro ADME; conditions: no Pgp inhibitor, apical to basolateral (A→B)
Experimental: as §1, §2, §3, §4

Papp A→B at 90 min, 5 μM [1]: < 0.23 ×10⁻⁶ cm/s
MDCK (A->B) [2]: less than 0.23
SMILES: O=C(O)CN1CCC(C(=O)N2CCC(c3ccc4c(n3)NCCC4)CC2)CC1 [Reference Compound]
